Test results taken from patent US20160375155A1, “Collagen Imaging Compositions” (Collagen Medical, LLC, priority 2015, published 2016).

Assays:
[1] = Relaxivity in PBS (Bruker mq60, 60 MHz); assay type: physicochemical; conditions: pH 7.4 PBS at 1.4 T, 37° C.
Description: The relaxivity of Compound ID Nos. 1, 2 and 4 were determined in PBS at 37° C. using a Bruker mq60 spectrometer operating at 60 MHz (1.4 tesla). Samples were equilibrated at concentrations ranging from 0-200 μM for at least 30 minutes at 37° C. T1 was measured using an inversion recovery sequence. Relaxivities were calculated by subtracting the relaxation rate of the buffer […] and then dividing the result by the concentration of Compound.

[2] = Pharmacokinetics (rat), plasma gadolinium by ICP-MS; assay type: in vivo, Sprague Dawley rats; conditions: 1.3 umol/kg iv bolus in 80 mM sucrose, pH 7, 2-90 minutes
Description: Compound ID No. 1 was formulated at pH 7 in 80 mM sucrose and administered to Sprague Dawley rats (n=2) at dose of 1.3 umol/kg using a bolus IV injection. Plasma was sampled at 2, 5, 15, 30, and 90 minutes post-injection and analyzed for gadolinium content using ICP-MS (FIG. 15).

[3] = system: hypoperfused vs normally perfused myocardium; assay type: in vivo, canine
Description: To mimic severe ischemia, a canine model was used in which an inflatable variable vascular occluder was placed around the left anterior descending coronary artery (LAD) to allow occlusion and reperfusion. Imaging was performed on a 3 T clinical scanner 4 days after implantation of the occluder. The conventional saturation recovery pulse sequence for stress perfusion imaging was compared with a segmented inversion method. The purpose of the segmented inversion method was to leverage the steady-state properties of Compound ID No. 1. This segmented inversion recovery pulse sequence provides greater T1 weighting, higher spatial resolution, and greater myocardial tissue contrast. Additionally, since imaging is delayed, the entire heart can be imaged. After baseline MRI scanning, the balloon was inflated. Compound ID No. 1 was administered as an i.v. bolus at a dose of 7.5 μmol/kg one minute after coronary artery occlusion. The occlusion was maintained for an additional 4 minutes, after which blood flow was restored. Imaging was performed prior to occlusion release and at multiple time points following reperfusion (up to 120 minutes after reperfusion, see FIG. 20)
To assess relative perfusion, labeled microspheres were administered at 3 timepoints in the study. La-labeled microspheres were given before coronary artery occlusion, Au-labeled microspheres were given during coronary artery occlusion, and Lu-labeled microspheres were given after reperfusion. In addition, prior to euthanasia, the variable occluder was re-inflated and fluorescent microspheres were administered in combination with KCl to arrest the heart and visually delineate the area of hypo-perfusion. The animal was sacrificed at ca. 120 minutes post Compound ID No. 1 and the heart removed and sectioned according to American Heart Association guidelines (M D Cerqueira et al, Circulation, 2002, 105:539-42). At autopsy under ultraviolet light, the hypo-perfused myocardium was differentiated from normal myocardium due to the lack of fluorescence in the hypo-perfused tissue. Based on the fluorescence, a sample of the ischemic territory and a sample of the remote myocardium were taken for ex vivo analysis. These tissue samples were weighed, digested in nitric acid, and analyzed for the elements La, Au, Lu (the three microsphere injections) and gadolinium (Compound ID No. 1) using ICP-MS. Concentrations in the ischemic tissue were compared to that of the remote myocardium to assess regional flow and probe uptake.
Data were quantitatively evaluated at pre-contrast, at 6 minutes post-contrast, and 15 minutes post-contrast using signal-to-noise ratios (SNR) for normally perfused myocardium, SNR for hypo-perfused myocardium, and contrast to noise ratio (CNR) for normal-to-hypoperfused myocardium, Tables 8-10 and FIG. 23. […]

Question: What does the source list for `CC(C)C[C@H](NC(=O)[C@@H]1CSSC[C@H](NC(=O)[C@H](Cc2c[nH]cn2)NC(=O)[C@H](Cc2c[nH]c3ccccc23)NC(=O)[C@H](CCCCNC(=O)CC[C@H](C(=O)O)N2CCN(CC(=O)O)CCN(CC(=O)O)CCN(CC(=O)O)CC2)NC(=O)CNC(=O)CC[C@H](C(=O)O)N2CCN(CC(=O)O)CCN(CC(=O)O)CCN(CC(=O)O)CC2)C(=O)N[C@@H]([C@@H](C)O)C(=O)N[C@@H]([C@@H](C)O)C(=O)N[C@@H](CCCCNC(=O)CC[C@H](C(=O)O)N2CCN(CC(=O)O)CCN(CC(=O)O)CCN(CC(=O)O)CC2)C(=O)N[C@@H](Cc2ccccc2)C(=O)N2CCC[C@H]2C(=O)N[C@@H](Cc2c[nH]cn2)C(=O)N[C@@H](Cc2c[nH]cn2)C(=O)N[C@@H](Cc2ccc(O)cc2)C(=O)N1)C(=O)N[C@@H](Cc1ccc(O)cc1)C(=O)N[C@@H](Cc1ccc(-c2ccccc2)cc1)C(N)=O` [Compound ID No. 1]?
Answer: R1 (relaxivity) [1]: 43.4 mM⁻¹ s⁻¹; pharmacokinetic profile (plasma gadolinium) [2]: rapid initial blood clearance; ΔCNR relative to EP-3600 study ([3]; 7.5 μmol/kg vs 12.3 μmol/kg EP-3600 (pig, literature)): 3 to 4 fold; visualization of myocardial perfusion defect ([3]; MRI after 7.5 μmol/kg): readily visualized; change in SNR of hypoperfused myocardium vs pre-contrast ([3]; post injection): not significantly higher compared to the pre-contrast image; change in SNR of normally perfused myocardium vs pre-contrast ([3]; post injection, persists at 15 min, P<0.01): strong and significant increase in SNR
